Earlier results as cited in patent publication US8476466B2 (priority 2008, dated 2013).

Tested on: mice
Conditions: mouse, in vivo

| Compound | 50% lethal dose (LD50, in mice) |
| --- | --- |
| arsenic acid | 14 to 18 mg/kg |
| C[As+](C)(C)CC(=O)[O-] [arsenobetaine] | 10000 mg/kg |
